How the values were obtained:
[1] = unbound molecule; cited from earlier work
[2] = Thermogravimetric analysis, thermal stability; assay type: physicochemical; conditions: simple salt
Protocol: Amberlite IRP69 strong cation-exchange material was stirred in a minimal amount of deionized water and an excess (˜10-500 molar excess) silver nitrate was added and the mixture stirred by the addition of a mechanical stirrer for 60 minutes. […] The modified IRP69 was dried under vacuum at 130° C. and the material was milled with an IKA homogenizer and the resulting particles were put through a sieve with a 35 μm cutoff. The powder was dried under vacuum and used for incorporation within various polymer composite mixtures.
Thermal stability of a benzalkonium salt of IRP69 (IRP69-benzalkonium) was measured and compared to thermal stability of benzalkonium chloride (simple salt). […] (close to the optimal processing temperature polyethylene terephthalate), unexpectedly providing for stable incorporation of the subject biologically active materials within composites useful to create fibers, threads, woven textiles and fabrics incorporating these thermally demanding materials.

Compound	susceptible to thermal degradation to p-chloroaniline above [1]	begins to decompose at (thermogravimetric profile) [2]
[H]/N=C(\N/C(=N/[H])NCCCCCCNC(=N)NC(=N)Nc1ccc(Cl)cc1)Nc1ccc(Cl)cc1 [Chlorhexidine]	above 70 °C	
benzalkonium chloride		about 200 °C
